Measured values reported in patent US11883407B2, “Medicament for the treatment of chronic cough” (Shionogi & Co., Ltd., priority 2018, dated 2024).

Key:
[1] = Phase II clinical trial: treatment-related and taste-related adverse events; format: in vivo, human
Method: The trial was conducted as a placebo-controlled, multicenter, randomized, double-blind, cross-over comparative study. The study consists of a screening phase (1 to 4 weeks), a first treatment phase (15 days), a drug holiday (2 to 3 weeks), a second treatment phase (15 days) and a follow-up phase (1 week).
Subjects (20 females, 11 males, mean age of 50.0 years) were randomly assigned to either the group receiving the compound according to Formula (I) first or the group receiving the placebo first. The subjects in the group receiving the compound according to Formula (I) first received orally tablets containing 150 mg of the compound according to Formula (I) (50 mg, 3 tablets), and the subjects in the group receiving the placebo first received orally placebo tablets (3 tablets), from the day following the first treatment phase once daily in the morning for 2 weeks.
Next, the incidence of taste-related adverse events and side effects observed in the Phase II clinical trial is shown in Table 6.
Here, the incidence of taste-related adverse events in Test Example 6 was examined. In this study, the compound represented by Formula (I) and the corresponding placebo were used as the investigational drugs. As the study design, a cross-over design consisting of two treatment phases was used. Each subject was assigned to either the treatment group taking 150 mg per day of the compound represented by Formula (I) during the first treatment phase and the placebo during the second treatment phase, or the treatment group taking the placebo during the first treatment phase and 150 mg per day of the compound represented by Formula (I) during the second treatment phase. The safety analysis population in this study was 31 subjects, all of whom were taking the compound represented by Formula (I) and the placebo. Among them, dysgeusia occurred in 1 subject (1/31, 3.2%) and hypogeusia occurred in another subject (1/31, 3.2%) when taking the compound represented by Formula (I). […] Therefore, taste-related adverse events occurred in 2 subjects (2/31, 6.5%). No taste-related adverse events were observed when taking the placebo.
Based on the above results, for the proportion of subjects who experienced any of the taste-related adverse events, the study design of each study was taken into account, and as the difference between each investigational drug and placebo, the mean of differences of incidence in the same subject between the treatments and the two-sided 95% confidence interval thereof were calculated for Test Example 6, and the difference of incidence between the Gefapixant 50 mg treatment group and the placebo treatment group and the two-sided 95% confidence interval thereof were calculated for the study MK-7264-012.

human P2X2/3 receptor = biological target: T1, human P2X2/3 receptor (Homo sapiens, UniProt P56373+Q9UBL9); assay: Evaluation of human P2X2/3 receptor inhibitory activity (Fluo-3 fluorescence, C6BU-1 cells, α,β-methylene ATP 6 μM)
T1 sequence (Q9UBL9 1-471): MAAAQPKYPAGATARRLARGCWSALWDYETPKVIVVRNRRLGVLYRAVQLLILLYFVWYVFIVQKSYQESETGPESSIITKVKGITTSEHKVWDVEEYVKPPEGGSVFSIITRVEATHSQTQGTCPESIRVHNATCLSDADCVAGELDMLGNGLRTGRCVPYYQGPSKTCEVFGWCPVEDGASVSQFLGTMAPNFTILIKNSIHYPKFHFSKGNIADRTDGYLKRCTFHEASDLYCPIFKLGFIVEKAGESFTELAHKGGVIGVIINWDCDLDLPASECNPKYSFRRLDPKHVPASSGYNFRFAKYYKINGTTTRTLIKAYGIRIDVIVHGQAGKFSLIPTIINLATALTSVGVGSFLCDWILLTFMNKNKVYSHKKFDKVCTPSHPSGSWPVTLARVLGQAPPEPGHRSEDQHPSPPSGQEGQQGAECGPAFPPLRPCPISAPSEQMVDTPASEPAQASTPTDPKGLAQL
T1 sequence (P56373 1-397): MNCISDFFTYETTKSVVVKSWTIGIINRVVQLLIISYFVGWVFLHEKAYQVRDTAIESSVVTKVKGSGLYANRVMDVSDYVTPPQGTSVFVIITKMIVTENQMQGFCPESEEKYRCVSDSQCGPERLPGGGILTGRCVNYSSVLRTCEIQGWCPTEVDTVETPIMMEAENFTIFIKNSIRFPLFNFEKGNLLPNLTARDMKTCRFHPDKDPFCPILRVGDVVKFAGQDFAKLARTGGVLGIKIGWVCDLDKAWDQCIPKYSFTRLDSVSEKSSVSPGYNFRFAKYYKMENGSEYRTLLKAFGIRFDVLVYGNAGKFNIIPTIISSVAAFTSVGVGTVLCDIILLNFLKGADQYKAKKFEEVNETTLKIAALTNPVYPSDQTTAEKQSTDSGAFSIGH

SMILES: C[C@@H](Cn1c(=O)[nH]/c(=N\c2ccc(Oc3ccccn3)cc2)n(Cc2ccc(Cl)cc2)c1=O)C(=O)O [compound represented by Formula (I), (2S)-3-(3-[(4-Chlorophenyl)methyl]-2,6-dioxo-4-{[4-(pyridin-2-yloxy)phenyl]amino}-3,6-dihydro-1,3,5-triazin-1(2H)-yl)-2-methyl-propanoic acid]
- Any Treatment-related AEs, number of events ([1]; 150 mg once daily, N = 31): (4)
- Drug-induced liver injury, number of events ([1]; 150 mg once daily, N = 31): (1)
- Drug-induced liver injury, patients ([1]; 150 mg once daily, N = 31): 1 (3.2) n (%)
- Dysgeusia, number of events ([1]; 150 mg once daily, N = 31): (1)
- Dysgeusia, patients ([1]; 150 mg once daily, N = 31): 1 (3.2) n (%)
- Gastrointestinal disorders, number of events ([1]; 150 mg once daily, N = 31): (1)
- Gastrointestinal disorders, patients ([1]; 150 mg once daily, N = 31): 1 (3.2) n (%)
- Hepatobiliary disorders, number of events ([1]; 150 mg once daily, N = 31): (1)
- Hepatobiliary disorders, patients ([1]; 150 mg once daily, N = 31): 1 (3.2) n (%)
- Hypoaesthesia oral, number of events ([1]; 150 mg once daily, N = 31): (1)
- Hypoaesthesia oral, patients ([1]; 150 mg once daily, N = 31): 1 (3.2) n (%)
- Hypogeusia, number of events ([1]; 150 mg once daily, N = 31): (1)
- Nervous system disorders, number of events ([1]; 150 mg once daily, N = 31): (2)
- Nervous system disorders, patients ([1]; 150 mg once daily, N = 31): 2 (6.5) n (%)
- Patients with any Treatment-related AEs ([1]; 150 mg once daily, N = 31): 4 (12.9) n (%)
- hypogeusia, patients ([1]; 150 mg once daily, N = 31): 1 (3.2) n (%)
- severity of taste-related adverse events ([1]; 150 mg per day): both were mild
- ageusia ([1]; 150 mg per day, 31 subjects): No ageusia was observed
- dysgeusia (taste change), patients ([1]; 150 mg per day, 31 subjects): 3.2%
- hypogeusia, patients ([1]; 150 mg per day, 31 subjects): 3.2%
- number of subjects with taste-related adverse events ([1]; 150 mg per day, 31 subjects): 2 subjects
- taste-related adverse events, patients ([1]; 150 mg per day, 31 subjects): 6.5%
- Difference of incidence of any of the taste-related adverse events (drug − placebo) ([1]; 150 mg, mean difference between treatments in the same subject): 6.5%
- IC50 (human P2X2/3 receptor): 1100 nM
